In ChEMBL document CHEMBL1201862, “PubChem BioAssay data set” (2004):
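Interpolation was linear, between the two tested concentrations surrounding the appropriate level; five concentrations were tested over 48 hours in 96-well plates. GI50 marks 50% less growth.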 Activity calls are given as the source filed them. Cut-off read from the data, not from the text of the source: active = GI50 up to about 1.1 µM and inactive = higher.

Key:
Assay in all cases: NCI tumour cell line growth inhibition, 48 h
LOX IMVI = tested on: LOX IMVI
EKVX = tested on: EKVX
RXF 393 = tested on: RXF 393
MDA-MB-435 = tested on: MDA-MB-435
A549 = tested on: A549
SR = tested on: SR
OVCAR-4 = tested on: OVCAR-4
HCT-116 = tested on: HCT-116
MDA-N = tested on: MDA-N
CAKI-1 = tested on: CAKI-1
NCI-H23 = tested on: NCI-H23
SF-295 = tested on: SF-295
U-251 = tested on: U-251
NCI-H460 = tested on: NCI-H460
M14 = tested on: M14
UACC-257 = tested on: UACC-257
RPMI-8226 = tested on: RPMI-8226
SK-OV-3 = tested on: SK-OV-3
NCI-H226 = tested on: NCI-H226
786-0 = tested on: 786-0
OVCAR-5 = tested on: OVCAR-5
NCI/ADR-RES = tested on: NCI/ADR-RES
ACHN = tested on: ACHN
CCRF-CEM = tested on: CCRF-CEM
HOP-62 = tested on: HOP-62
HCT-15 = tested on: HCT-15
SNB-75 = tested on: SNB-75
SK-MEL-2 = tested on: SK-MEL-2
SW-620 = tested on: SW-620
SK-MEL-5 = tested on: SK-MEL-5
UO-31 = tested on: UO-31
TK-10 = tested on: TK-10
OVCAR-8 = tested on: OVCAR-8
NCI-H522 = tested on: NCI-H522
MCF7 = tested on: MCF7
PC-3 = tested on: PC-3
HCC 2998 = tested on: HCC 2998
COLO 205 = tested on: COLO 205
T47D = tested on: T47D
SF-539 = tested on: SF-539
Malme-3M = tested on: Malme-3M
DU-145 = tested on: DU-145
SN12C = tested on: SN12C
Hs-578T = tested on: Hs-578T
SNB-19 = tested on: SNB-19
SF-268 = tested on: SF-268
OVCAR-3 = tested on: OVCAR-3
MDA-MB-231 = tested on: MDA-MB-231
K562 = tested on: K562
IGROV-1 = tested on: IGROV-1
SK-MEL-28 = tested on: SK-MEL-28
BT-549 = tested on: BT-549
HT-29 = tested on: HT-29
MOLT-4 = tested on: MOLT-4
KM12 = tested on: KM12
A498 = tested on: A498
UACC-62 = tested on: UACC-62
HL-60 = tested on: HL-60

N#Cc1nc(CCN2C(=O)c3ccccc3C2=O)oc1N
GI50 (LOX IMVI): > 100 µM (inactive)
GI50 (EKVX): > 100 µM (inactive)
GI50 (RXF 393): > 100 µM (inactive)
GI50 (MDA-MB-435): > 100 µM (inactive)
GI50 (A549): > 100 µM (inactive)
GI50 (SR): > 100 µM (inactive)
GI50 (OVCAR-4): > 100 µM (inactive)
GI50 (HCT-116): > 100 µM (inactive)
GI50 (MDA-N): > 100 µM (inactive)
GI50 (CAKI-1): > 100 µM (inactive)
GI50 (NCI-H23): > 100 µM (inactive)
GI50 (SF-295): > 100 µM (inactive)
GI50 (U-251): > 100 µM (inactive)
GI50 (NCI-H460): > 100 µM (inactive)
GI50 (M14): > 100 µM (inactive)
GI50 (UACC-257): > 100 µM (inactive)
GI50 (RPMI-8226): > 100 µM (inactive)
GI50 (SK-OV-3): > 100 µM (inactive)
GI50 (NCI-H226): > 100 µM (inactive)
GI50 (786-0): > 100 µM (inactive)
GI50 (OVCAR-5): > 100 µM (inactive)
GI50 (NCI/ADR-RES): > 100 µM (inactive)
GI50 (ACHN): > 100 µM (inactive)
GI50 (CCRF-CEM): > 100 µM (inactive)
GI50 (HOP-62): > 100 µM (inactive)
GI50 (HCT-15): > 100 µM
GI50 (SNB-75): < 0.01 µM (active)
GI50 (SK-MEL-2): > 100 µM (inactive)
GI50 (SW-620): > 100 µM (inactive)
GI50 (SK-MEL-5): > 100 µM (inactive)
GI50 (UO-31): > 100 µM (inactive)
GI50 (TK-10): > 100 µM (inactive)
GI50 (OVCAR-8): > 100 µM (inactive)
GI50 (NCI-H522): > 100 µM (inactive)
GI50 (MCF7): > 100 µM (inactive)
GI50 (PC-3): > 100 µM (inactive)
GI50 (HCC 2998): 0.0845 µM (active)
GI50 (COLO 205): > 100 µM (inactive)
GI50 (T47D): > 100 µM (inactive)
GI50 (SF-539): > 100 µM (inactive)
GI50 (Malme-3M): > 100 µM (inactive)
GI50 (DU-145): > 100 µM (inactive)
GI50 (SN12C): > 100 µM (inactive)
GI50 (Hs-578T): > 100 µM (inactive)
GI50 (SNB-19): > 100 µM (inactive)
GI50 (SF-268): > 100 µM (inactive)
GI50 (OVCAR-3): > 100 µM (inactive)
GI50 (MDA-MB-231): > 100 µM (inactive)
GI50 (K562): > 100 µM (inactive)
GI50 (IGROV-1): > 100 µM (inactive)
GI50 (SK-MEL-28): > 100 µM (inactive)
GI50 (BT-549): > 100 µM (inactive)
GI50 (HT-29): > 100 µM (inactive)
GI50 (MOLT-4): > 100 µM (inactive)
GI50 (KM12): 4.45 µM (inactive)

CC(=O)OCC1OC(SC2=N/C(=C\c3ccc(Br)s3)C(=O)N2CN2CCOCC2)C(OC(C)=O)C(OC(C)=O)C1OC(C)=O (configuration not stated)
GI50 (LOX IMVI): 12.9 µM (inactive)
GI50 (EKVX): 8.22 µM (inactive)
GI50 (MDA-MB-435): 23.8 µM (inactive)
GI50 (SR): 12.6 µM (inactive)
GI50 (OVCAR-4): 29.4 µM (inactive)
GI50 (HCT-116): 13.9 µM (inactive)
GI50 (MDA-N): 18 µM (inactive)
GI50 (A498): 20.5 µM (inactive)
GI50 (CAKI-1): 17.9 µM (inactive)
GI50 (NCI-H23): 12.7 µM (inactive)
GI50 (SF-295): 19.5 µM (inactive)
GI50 (U-251): 16.3 µM (inactive)
GI50 (NCI-H460): 18.6 µM (inactive)
GI50 (UACC-62): 15.4 µM (inactive)
GI50 (UACC-257): 16.6 µM (inactive)
GI50 (RPMI-8226): 5.97 µM (inactive)
GI50 (NCI-H226): 11.3 µM (inactive)
GI50 (786-0): 16.7 µM (inactive)
GI50 (OVCAR-5): 22.9 µM (inactive)
GI50 (NCI/ADR-RES): 20.4 µM (inactive)
GI50 (ACHN): 16.2 µM (inactive)
GI50 (HOP-62): 23 µM (inactive)
GI50 (HCT-15): 16.6 µM
GI50 (SNB-75): 25.4 µM (inactive)
GI50 (SK-MEL-2): 0.383 µM (active)
GI50 (SW-620): 14.9 µM (inactive)
GI50 (SK-MEL-5): 19.1 µM (inactive)
GI50 (UO-31): 15.5 µM (inactive)
GI50 (TK-10): 16.7 µM (inactive)
GI50 (OVCAR-8): 16.3 µM (inactive)
GI50 (NCI-H522): 6.87 µM (inactive)
GI50 (MCF7): 15.4 µM (inactive)
GI50 (PC-3): 23 µM (inactive)
GI50 (HCC 2998): 19.8 µM (inactive)
GI50 (COLO 205): 18.8 µM (inactive)
GI50 (HL-60): 3.77 µM (inactive)
GI50 (T47D): 27.9 µM (inactive)
GI50 (Malme-3M): 16.5 µM (inactive)
GI50 (DU-145): 16.5 µM (inactive)
GI50 (SN12C): 13.6 µM (inactive)
GI50 (Hs-578T): 19.5 µM (inactive)
GI50 (SNB-19): 19.9 µM (inactive)
GI50 (SF-268): 32.8 µM (inactive)
GI50 (OVCAR-3): > 10 µM (inactive)
GI50 (MDA-MB-231): 26.7 µM (inactive)
GI50 (K562): 10.3 µM (inactive)
GI50 (IGROV-1): 16.8 µM (inactive)
GI50 (SK-MEL-28): 15.7 µM (inactive)
GI50 (BT-549): 14.9 µM (inactive)
GI50 (HT-29): 15.5 µM (inactive)
GI50 (MOLT-4): 20 µM (inactive)
GI50 (KM12): 17.2 µM (inactive)

CN1C2CC(=O)CC1[C@@H]1OC(c3ccccc3)O[C@H]21 (some centres not stated)
GI50 (LOX IMVI): > 100 µM (inactive)
GI50 (EKVX): > 100 µM (inactive)
GI50 (RXF 393): > 100 µM (inactive)
GI50 (MDA-MB-435): > 100 µM (inactive)
GI50 (A549): > 100 µM (inactive)
GI50 (SR): > 100 µM (inactive)
GI50 (OVCAR-4): > 100 µM (inactive)
GI50 (HCT-116): > 100 µM (inactive)
GI50 (MDA-N): > 100 µM (inactive)
GI50 (CAKI-1): > 100 µM (inactive)
GI50 (NCI-H23): > 100 µM (inactive)
GI50 (SF-295): > 100 µM (inactive)
GI50 (U-251): > 100 µM (inactive)
GI50 (NCI-H460): > 100 µM (inactive)
GI50 (M14): > 100 µM (inactive)
GI50 (UACC-62): > 100 µM (inactive)
GI50 (UACC-257): > 100 µM (inactive)
GI50 (RPMI-8226): > 100 µM (inactive)
GI50 (SK-OV-3): > 100 µM (inactive)
GI50 (NCI-H226): > 100 µM (inactive)
GI50 (786-0): > 100 µM (inactive)
GI50 (NCI/ADR-RES): > 100 µM (inactive)
GI50 (CCRF-CEM): > 100 µM (inactive)
GI50 (HOP-62): > 100 µM (inactive)
GI50 (HCT-15): > 100 µM
GI50 (SNB-75): > 100 µM (inactive)
GI50 (SK-MEL-2): > 100 µM (inactive)
GI50 (SW-620): > 100 µM (inactive)
GI50 (SK-MEL-5): > 100 µM (inactive)
GI50 (UO-31): > 100 µM (inactive)
GI50 (TK-10): > 100 µM (inactive)
GI50 (OVCAR-8): > 100 µM (inactive)
GI50 (NCI-H522): > 100 µM (inactive)
GI50 (MCF7): > 100 µM (inactive)
GI50 (PC-3): > 100 µM (inactive)
GI50 (HCC 2998): > 100 µM (inactive)
GI50 (COLO 205): > 100 µM (inactive)
GI50 (HL-60): > 100 µM (inactive)
GI50 (T47D): > 100 µM (inactive)
GI50 (SF-539): > 100 µM (inactive)
GI50 (Malme-3M): > 100 µM (inactive)
GI50 (DU-145): > 100 µM (inactive)
GI50 (SN12C): > 100 µM (inactive)
GI50 (Hs-578T): > 100 µM (inactive)
GI50 (SNB-19): > 100 µM (inactive)
GI50 (SF-268): > 100 µM (inactive)
GI50 (OVCAR-3): > 100 µM (inactive)
GI50 (MDA-MB-231): > 100 µM (inactive)
GI50 (K562): > 100 µM (inactive)
GI50 (IGROV-1): > 100 µM (inactive)
GI50 (SK-MEL-28): > 100 µM (inactive)
GI50 (BT-549): > 100 µM (inactive)
GI50 (HT-29): > 100 µM (inactive)
GI50 (MOLT-4): > 100 µM (inactive)
GI50 (KM12): > 100 µM (inactive)
